# Data as given in BindingDB's records for doi:10.7270/Q2GM865X (D3R/Abbott, 2015).
# Where “and” joins values, the source holds several entries; their conditions need not be identical. Equal entries are not always repeated.
# Biological target: Coagulation factor X (Homo sapiens, UniProt P00742)
# Assay: D3R245
# Coagulation factor X, sequence (P00742 41-179 limits assumed): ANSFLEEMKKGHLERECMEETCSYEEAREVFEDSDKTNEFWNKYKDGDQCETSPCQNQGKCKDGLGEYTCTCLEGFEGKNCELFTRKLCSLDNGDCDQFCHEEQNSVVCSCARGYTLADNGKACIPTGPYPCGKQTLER
# Coagulation factor X, sequence (P00742 235-488 limits assumed): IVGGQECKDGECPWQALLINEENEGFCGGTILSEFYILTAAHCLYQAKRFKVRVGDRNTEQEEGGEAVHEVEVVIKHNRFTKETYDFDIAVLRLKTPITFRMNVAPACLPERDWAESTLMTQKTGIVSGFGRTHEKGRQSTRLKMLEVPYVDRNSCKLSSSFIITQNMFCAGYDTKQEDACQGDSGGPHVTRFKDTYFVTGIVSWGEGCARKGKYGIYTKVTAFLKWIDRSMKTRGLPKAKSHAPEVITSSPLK
row,IC50,Compound
1,405 nM,C[C@@H](C(=O)N1CCOCC1)N1CC[C@H](N(C)S(=O)(=O)/C=C/c2ccc(Cl)s2)C1=O [GTC000044A]
2,87.5 nM,C[C@@H](C(=O)N1CCOCC1)N1CC[C@H](N(CC#N)S(=O)(=O)/C=C/c2ccc(Cl)cc2)C1=O [GTC000011A]
3,60 nM,CCC(=O)CN([C@H]1CCN([C@@H](C)C(=O)N2CCOCC2)C1=O)S(=O)(=O)/C=C/c1ccc(Cl)cc1 [GTC000012A]
4,132 nM,C[C@@H](C(=O)N1CCOCC1)N1CC[C@H](N(CC(=O)O)S(=O)(=O)/C=C/c2ccc(Cl)cc2)C1=O [GTC000017A]
5,358 nM,CCOC(=O)CN([C@H]1CCN([C@@H](C)C(=O)N2CCOCC2)C1=O)S(=O)(=O)c1ccc2cc(Cl)ccc2c1 [GTC000018A]
6,218 nM,C[C@@H](C(=O)N1CCOCC1)N1CC[C@H](N(CC(N)=O)S(=O)(=O)c2cc3cc(Cl)ccc3s2)C1=O [GTC000031A]
7,14 nM,C[C@@H](C(=O)N1CCOCC1)N1CC[C@H](N(CC(N)=O)S(=O)(=O)c2ccc(-c3ccc(Cl)s3)s2)C1=O [GTC000032A]
8,27 nM,CCC(=O)CN([C@H]1CCN([C@@H](C)C(=O)N2CCOCC2)C1=O)S(=O)(=O)c1cc2ccc(Cl)cc2s1 [GTC000025A]
9,17 nM,C[C@@H](C(=O)N1CCOCC1)N1CC[C@H](N(CC(=O)C(C)(C)C)S(=O)(=O)c2ccc3cc(Cl)ccc3c2)C1=O [GTC000021A]
10,278 nM,CCC(=O)CN([C@H]1CCN([C@@H](C)C(=O)N2CCOCC2)C1=O)S(=O)(=O)c1cc2cc(Cl)ccc2s1 [GTC000027A]
11,54 nM,CCN([C@H]1CCN([C@@H](C)C(=O)N2CCOCC2)C1=O)S(=O)(=O)c1ccc2cc(Cl)ccc2c1 [GTC000023A]
12,54 nM,C[C@@H](C(=O)N1CCOCC1)N1CC[C@H](N(CC(N)=O)S(=O)(=O)/C=C/c2ccc(Cl)cc2)C1=O [GTC000030A]
13,24 nM,C[C@@H](C(=O)N1CCOCC1)N1CC[C@H](N(CC(=O)O)S(=O)(=O)c2ccc(-c3ccc(Cl)s3)s2)C1=O [GTC000016A]
14,67 nM,C=CCN([C@H]1CCN([C@@H](C)C(=O)N2CCOCC2)C1=O)S(=O)(=O)c1ccc2cc(Cl)ccc2c1 [GTC000004A]
15,50 nM,C[C@@H](C(=O)N1CCOCC1)N1CC[C@H](N(CC(N)=O)S(=O)(=O)c2cc3ccc(Cl)cc3s2)C1=O [GTC000026A]
16,10.5 nM,COC(=O)CN([C@H]1CCN([C@@H](C)C(=O)N2CCOCC2)C1=O)S(=O)(=O)c1ccc2cc(Cl)ccc2c1 [GTC000001A]
17,60 nM,COC(=O)CN([C@H]1CCN([C@@H](C)C(=O)N2CCOCC2)C1=O)S(=O)(=O)/C=C/c1ccc(Cl)cc1 [GTC000013A]

# Continued, compound first:
row,Compound,IC50
1,C[C@@H](C(=O)N1CCOCC1)N1CC[C@H](N(c2ccccc2)S(=O)(=O)c2ccc3cc(Cl)ccc3c2)C1=O [GTC000033A],266 nM
2,C[C@@H](C(=O)N1CCOCC1)N1CC[C@H](N(CC#N)S(=O)(=O)c2ccc3cc(Cl)ccc3c2)C1=O [GTC000003A],22.5 nM
3,C[C@@H](C(=O)N1CCOCC1)N1CC[C@H](N(Cc2ccccn2)S(=O)(=O)c2ccc3cc(Cl)ccc3c2)C1=O [GTC000028A],8 nM and 12 nM
4,C[C@@H](C(=O)N1CCOCC1)N1CC[C@H](N(CCN2CCCC2)S(=O)(=O)c2ccc3cc(Cl)ccc3c2)C1=O [GTC000043A],12 nM
5,C[C@@H](C(=O)N1CCOCC1)N1CC[C@H](N(c2cccnc2)S(=O)(=O)c2ccc3cc(Cl)ccc3c2)C1=O [GTC000037A],77 nM
6,C[C@@H](C(=O)N1CCOCC1)N1CC[C@H](N(c2ccc(F)cc2)S(=O)(=O)c2ccc3cc(Cl)ccc3c2)C1=O [GTC000034A],170 nM
7,C[C@@H](C(=O)N1CCOCC1)N1CC[C@H](N(CC#N)S(=O)(=O)c2ccc(-c3ccc(Cl)s3)s2)C1=O [GTC000008A],28 nM
8,C[C@@H](C(=O)N1CCOCC1)N1CC[C@H](N(Cc2ccco2)S(=O)(=O)c2ccc3cc(Cl)ccc3c2)C1=O [GTC000019A],68 nM
9,C[C@@H](C(=O)N1CCOCC1)N1CC[C@H](N(Cc2ccoc2)S(=O)(=O)c2ccc3cc(Cl)ccc3c2)C1=O [GTC000014A],40 nM
10,COC(=O)CN([C@H]1CCN([C@@H](C)C(=O)N2CCOCC2)C1=O)S(=O)(=O)c1ccc(-c2ccc(Cl)s2)s1 [GTC000009A],15.5 nM
11,C[C@@H](C(=O)N1CCOCC1)N1CC[C@H](N(Cc2cccnc2)S(=O)(=O)c2ccc3cc(Cl)ccc3c2)C1=O [GTC000015A],26.3 nM
12,Cc1nc(CN([C@H]2CCN([C@@H](C)C(=O)N3CCOCC3)C2=O)S(=O)(=O)c2ccc3cc(Cl)ccc3c2)cs1 [GTC000024A],17.5 nM
13,CCC(=O)CN([C@H]1CCN([C@@H](C)C(=O)N2CCOCC2)C1=O)S(=O)(=O)c1ccc(-c2ccc(Cl)s2)s1 [GTC000010A],17 nM
14,C[C@@H](C(=O)N1C[C@@H]2C[C@H]1CO2)N1CC[C@H](N(CC(N)=O)S(=O)(=O)c2ccc3cc(Cl)ccc3c2)C1=O [GTC000039A],97.3 nM
15,C[C@@H](C(=O)N1CCOCC1)N1CC[C@H](N(CC(=O)OC(C)(C)C)S(=O)(=O)c2ccc3cc(Cl)ccc3c2)C1=O [GTC000022A],6.5 nM
16,C[C@@H](C(=O)N1CCOCC1)N1CC[C@H](N(Cc2nccs2)S(=O)(=O)c2ccc3cc(Cl)ccc3c2)C1=O [GTC000020A],38 nM
17,C[C@@H]1CN(C(=O)[C@H](C)N2CC[C@H](N(CC(N)=O)S(=O)(=O)c3ccc4cc(Cl)ccc4c3)C2=O)C[C@H](C)O1 [GTC000038A],26.5 nM
18,C[C@@H](C(=O)N1CCOCC1)N1CC[C@H](N(Cc2ccncc2)S(=O)(=O)c2ccc3cc(Cl)ccc3c2)C1=O [GTC000029A],11 nM
19,CC(=O)NCCN([C@H]1CCN([C@@H](C)C(=O)N2CCOCC2)C1=O)S(=O)(=O)c1ccc2cc(Cl)ccc2c1 [GTC000041A],56.5 nM
20,C[C@@H](C(=O)N1CCOCC1)N1CC[C@H](N(CCN2CCOCC2)S(=O)(=O)c2ccc3cc(Cl)ccc3c2)C1=O [GTC000040A],8.3 nM
21,C[C@@H](C(=O)N1CCOCC1)N1CC[C@H](N(CCN(C)C)S(=O)(=O)c2ccc3cc(Cl)ccc3c2)C1=O [GTC000042A],24 nM
22,C[C@@H](C(=O)N1CCOCC1)N1CC[C@H](N(c2ccsc2)S(=O)(=O)c2ccc3cc(Cl)ccc3c2)C1=O [GTC000036A],152 nM
